From patent US20170003277A1 (priority 2015, published 2017)

Key:
[1] = cited from earlier work
[2] = tested on: THP-1 human monocyte cell line; test: Pathway enrichment (DAVID) in THP-1 study: Copaxone vs mannitol and Probioglat vs GA; type: cell-based; conditions: Copaxone vs mannitol, 6 hours
[3] = tested on: THP-1 human monocyte cell line; test: Microarray gene expression in THP-1 cells, Polimunol vs Copaxone, 6 hours (Example 9); type: cell-based
Source text: Based on previous power calculations (using the R package ssize.fdr), to detect differentially-expressed genes with a fold-change between treatments of as low as 1.3 with 80% power the experiment was designed to include six replicates of each condition. The order of sample processing was randomized with respect to treatment in order to avoid creating confounding batch effects.
RNA was extracted and expression profiled genome-wide using the Affymetrix U133 Plus 2.0 chip. Three batches of Copaxone® and one batch of Polimunol were comparatively tested in six replicates each. RNA processing was performed by Expression Analysis (NC, USA).
Differentially-expressed probesets were identified across conditions using linear models for microarray data (LIMMA). For comparing Copaxone® (“GA”) and purported generic, comparisons were corrected for mannitol control (i.e., [GA vs mannitol] was compared to [purported generic vs mannitol]). Probesets were filtered by calls of presence on the chip for the relevant samples in the comparison (to be considered present at a given timepoint, a probeset was required to have on average a call of present or marginal across the relevant samples at that timepoint). Probesets were mapped to genes using the U133 Plus 2.0 chip annotation from Affymetrix.

[4] = Long-term animal toxicity studies of TV-5010; design: species or system rats and monkeys; conditions: in vivo

glatiramer acetate [Copaxone®]
Adverse events leading to discontinuation ([1]; GATE study arm): 5 | Effect on annualized relapse rate (ARR) ([1]; GATE study, Copaxone arm (357) vs Placebo (84)): no effect in reducing ARR | Fold Enrichment: GO: 0003006~reproductive developmental process ([2]; top downregulated genes): 6.25 | Fold Enrichment: GO: 0007275~multicellular organismal development ([2]; top downregulated genes): 2.168 | Fold Enrichment: GO: 0009653~anatomical structure morphogenesis ([2]; top downregulated genes): 2.643 | Fold Enrichment: GO: 0030154~cell differentiation ([2]; top downregulated genes): 2.556 | Fold Enrichment: GO: 0032502~developmental process ([2]; top downregulated genes): 1.984 | Fold Enrichment: GO: 0048513~organ development ([2]; top downregulated genes): 2.76 | Fold Enrichment: GO: 0048731~system development ([2]; top downregulated genes): 2.396 | Fold Enrichment: GO: 0048856~anatomical structure development ([2]; top downregulated genes): 2.165 | Fold Enrichment: GO: 0048869~cellular developmental process ([2]; top downregulated genes): 2.411 | Fold Enrichment: G0: 0001568~blood vessel development ([2]; top upregulated genes): 3.472 | Fold Enrichment: G0: 0002819~regulation of adaptive immune response ([2]; top upregulated genes): 7.067 | Fold Enrichment: G0: 0030154~cell differentiation ([2]; top upregulated genes): 1.794 | Fold Enrichment: GO: 0000267~cell fraction ([2]; top upregulated genes): 1.993 | Fold Enrichment: GO: 0001501~skeletal system development ([2]; top upregulated genes): 3.144 | Fold Enrichment: GO: 0001525~angiogenesis ([2]; top upregulated genes): 4.224 | Fold Enrichment: GO: 0001608~nucleotide receptor activity, G-protein coupled ([2]; top upregulated genes): 13.87 | Fold Enrichment: GO: 0001614~purinergic nucleotide receptor ([2]; top upregulated genes): 12.55 | Fold Enrichment: GO: 001816~cytokine production ([2]; top upregulated genes): 7.526 | Fold Enrichment: GO: 0001871~pattern binding ([2]; top upregulated genes): 5.244 | Fold Enrichment: GO: 0001944~vasculature development ([2]; top upregulated genes): 3.428 | Fold Enrichment: GO: 0002376~immune system process ([2]; top upregulated genes): 2.852 | Fold Enrichment: GO: 0002682~regulation of immune system process ([2]; top upregulated genes): 3.763 | Fold Enrichment: GO: 0002683~negative regulation of immune ([2]; top upregulated genes): 5.682 | Fold Enrichment: GO: 0002684~positive regulation of immune system process ([2]; top upregulated genes): 4.025 | Fold Enrichment: GO: 0002694~regulation of leukocyte activation ([2]; top upregulated genes): 4.14 | Fold Enrichment: GO: 0002697~regulation of immune effector process ([2]; top upregulated genes): 6.009 | Fold Enrichment: GO: 0002698~negative regulation of immune effector process ([2]; top upregulated genes): 15.05 | Fold Enrichment: GO: 0002698~positive regulation of response to external stimulus ([2]; top upregulated genes): 6.536 | Fold Enrichment: GO: 0002703~regulation of leukocyte mediated immunity ([2]; top upregulated genes): 7.43 | Fold Enrichment: GO: 0002822~regulation of adaptive immune response based on somatic recombination of immune receptors built from immunoglobulin superfamily domains ([2]; top upregulated genes): 7.244 | Fold Enrichment: GO: 0004222~metalloendopeptidase activity ([2]; top upregulated genes): 6.148 | Fold Enrichment: GO: 0004871~signal transducer activity ([2]; top upregulated genes): 2.537 | Fold Enrichment: GO: 0004872~receptor activity ([2]; top upregulated genes): 2.976 | Fold Enrichment: GO: 0004888~transmembrane receptor activity ([2]; top upregulated genes): 3.768 | Fold Enrichment: GO: 0004930~G-protein coupled receptor activity ([2]; top upregulated genes): 4.293 | Fold Enrichment: GO: 0005576~extracellular region ([2]; top upregulated genes): 2.824 | Fold Enrichment: GO: 0005578~proteinaceous extracellular matrix ([2]; top upregulated genes): 5.31 | Fold Enrichment: GO: 0005615~extracellular space ([2]; top upregulated genes): 3.371 | Fold Enrichment: GO: 0005624~membrane fraction ([2]; top upregulated genes): 2.128 | Fold Enrichment: GO: 0005626~insoluble friction ([2]; top upregulated genes): 2.12 | Fold Enrichment: GO: 0005886~plasma membrane ([2]; top upregulated genes): 2.42 | Fold Enrichment: GO: 0005887~integral to plasma membrane ([2]; top upregulated genes): 3.25 | Fold Enrichment: GO: 0006928~cell motion ([2]; top upregulated genes): 2.469 | Fold Enrichment: GO: 0006935~chemotaxis ([2]; top upregulated genes): 4.651 | Fold Enrichment: GO: 0006950~response to stress ([2]; top upregulated genes): 1.897 | Fold Enrichment: GO: 0006952~defense response ([2]; top upregulated genes): 3.418 | Fold Enrichment: GO: 0006954~inflammatory response ([2]; top upregulated genes): 4.475 | Fold Enrichment: GO: 0006955~immune response ([2]; top upregulated genes): 3.57 | Fold Enrichment: GO: 0007155~cell adhesion ([2]; top upregulated genes): 2.948 | Fold Enrichment: GO: 0007165~signal transduction ([2]; top upregulated genes): 1.567 | Fold Enrichment: GO: 0007166~cell surface receptor linked signal transduction ([2]; top upregulated genes): 2.246 | Fold Enrichment: GO: 0007186~G-protein coupled receptor protein signaling pathway ([2]; top upregulated genes): 2.726 | Fold Enrichment: GO: 0007275~multicellular organismal development ([2]; top upregulated genes): 1.742 | Fold Enrichment: GO: 0007610~behavior ([2]; top upregulated genes): 2.76 | Fold Enrichment: GO: 0007626~locomotory behavior ([2]; top upregulated genes): 4.081 | Fold Enrichment: GO: 0009605~response to external stimulus ([2]; top upregulated genes): 3.127 | Fold Enrichment: GO: 0009607~response to biotic stimulus ([2]; top upregulated genes): 3.376 | Fold Enrichment: GO: 0009611~response to wounding ([2]; top upregulated genes): 4.097 | Fold Enrichment: GO: 0009617~response to bacterium ([2]; top upregulated genes): 4.268 | Fold Enrichment: GO: 0009897~external side of plasma membrane ([2]; top upregulated genes): 6.497 | Fold Enrichment: GO: 0009986~cell surface ([2]; top upregulated genes): 4.067 | Fold Enrichment: GO: 0010033~response to organic substance ([2]; top upregulated genes): 2.03 | Fold Enrichment: GO: 0016020~membrane ([2]; top upregulated genes): 1.538 | Fold Enrichment: GO: 0016021~integral to membrane ([2]; top upregulated genes): 1.676 | Fold Enrichment: GO: 0016477~cell migration ([2]; top upregulated genes): 3.203 | Fold Enrichment: GO: 0016502~nucleotide receptor activity ([2]; top upregulated genes): 12.55 | Fold Enrichment: GO: 0019955~cytokine binding ([2]; top upregulated genes): 6.971 | Fold Enrichment: GO: 0022610~biological adhesion ([2]; top upregulated genes): 2.94 | Fold Enrichment: GO: 0030247~polysaccharide binding ([2]; top upregulated genes): 5.244 | Fold Enrichment: GO: 0030574~collagen cataboltc process ([2]; top upregulated genes): 20.7 | Fold Enrichment: GO: 0031012~extracellular matrix ([2]; top upregulated genes): 5.017 | Fold Enrichment: GO: 0031224~intrinsic to membrane ([2]; top upregulated genes): 1.684 | Fold Enrichment: GO: 0031226~intrinsic to plasma membrane ([2]; top upregulated genes): 3.268 | Fold Enrichment: GO: 0031347~regulation of defense response ([2]; top upregulated genes): 5.519 | Fold Enrichment: GO: 0031349~positive regulation of defense response ([2]; top upregulated genes): 6.758 | Fold Enrichment: GO: 0031960~response to corticosteroid stimulus ([2]; top upregulated genes): 6.623 | Fold Enrichment: GO: 0032101~regulation of response to external stimulus ([2]; top upregulated genes): 6.288 | Fold Enrichment: GO: 0032496~response to lipopolysaccharide ([2]; top upregulated genes): 5.682 | Fold Enrichment: GO: 0032502~developmental process ([2]; top upregulated genes): 1.643 | Fold Enrichment: GO: 0032879~regulation of localization ([2]; top upregulated genes): 2.359 | Fold Enrichment: GO: 0040011~locomotion ([2]; top upregulated genes): 3.21 | Fold Enrichment: GO: 0042221~response to chemical stimulus ([2]; top upregulated genes): 1.879 | Fold Enrichment: GO: 0042330~taxis ([2]; top upregulated genes): 4.651 | Fold Enrichment: GO: 0044243~multicellular organismal catabolic process ([2]; top upregulated genes): 20.7 | Fold Enrichment: GO: 0044421~extracellular region part ([2]; top upregulated genes): 3.61 | Fold Enrichment: GO: 0044425~membrane part ([2]; top upregulated genes): 1.539 | Fold Enrichment: GO: 0044459~plasma membrane part ([2]; top upregulated genes): 2.404 | Fold Enrichment: GO: 0045028~purinergic nudeotide receptor activity, G-protein coupled ([2]; top upregulated genes): 13.87 | Fold Enrichment: GO: 0045595~regulation of cell differentiation ([2]; top upregulated genes): 2.517 | Fold Enrichment: GO: 0046903~secretion ([2]; top upregulated genes): 3.164 | Fold Enrichment: GO: 0048513~organ development ([2]; top upregulated genes): 1.846 | Fold Enrichment: GO: 0048514~blood vessel morphogenesis ([2]; top upregulated genes): 3.398 | Fold Enrichment: GO: 0048518~positive regulation of biological process ([2]; top upregulated genes): 1.559 | Fold Enrichment: GO: 0048519~negative regulation of biological process ([2]; top upregulated genes): 1.629 | Fold Enrichment: GO: 0048545~response to steroid hormone stimulus ([2]; top upregulated genes): 4.216 | Fold Enrichment: GO: 0048583~regulation of response to stimulus ([2]; top upregulated genes): 3.613 | Fold Enrichment: GO: 0048584~positive regulation of response to stimulus ([2]; top upregulated genes): 3.79 | Fold Enrichment: GO: 0048731~system development ([2]; top upregulated genes): 1.918 | Fold Enrichment: GO: 0048856~anatomical structure development ([2]; top upregulated genes): 1.792 | Fold Enrichment: GO: 0048869~cellular developments process ([2]; top upregulated genes): 1.736 | Fold Enrichment: GO: 0048870~cell motility ([2]; top upregulated genes): 2.99 | Fold Enrichment: GO: 0050727~regulation of inflammatory response ([2]; top upregulated genes): 8.87 | Fold Enrichment: GO: 0050729~positive regulation of inflammatory response ([2]; top upregulated genes): 11.5 | Fold Enrichment: GO: 0050776~regulation of immune response ([2]; top upregulated genes): 4.293 | Fold Enrichment: GO: 0050793~regulation of developmental process ([2]; top upregulated genes): 3.161 | Fold Enrichment: GO: 0050864~regulation of B cell activation ([2]; top upregulated genes): 8.565 | Fold Enrichment: GO: 0050865~regulation of cell activation ([2]; top upregulated genes): 4.296 | Fold Enrichment: GO: 0050867~positive regulation of cell activation ([2]; top upregulated genes): 4.664 | Fold Enrichment: GO: 0050896~response to stimulus ([2]; top upregulated genes): 1.852 | Fold Enrichment: GO: 0051239~regulation of multicellular organismal process ([2]; top upregulated genes): 2.792 | Fold Enrichment: GO: 0051241~negative regulation of multicellular organismal ([2]; top upregulated genes): 4.902 | Fold Enrichment: GO: 0051270~regulation of cell motion ([2]; top upregulated genes): 3.643 | Fold Enrichment: GO: 0051384~response to glucocorticoid stimulus ([2]; top upregulated genes): 7.046 | Fold Enrichment: GO: 0051674~localization of cell ([2]; top upregulated genes): 2.99 | Fold Enrichment: GO: 0051704~multi-organism process ([2]; top upregulated genes): 2.223 | Fold Enrichment: GO: 0051707~response to other organism ([2]; top upregulated genes): 4.426 | Fold Enrichment: GO: 0060089~molecular transducer activity ([2]; top upregulated genes): 2.537 | Fold Enrichment: GO: 0065007~biological regulation ([2]; top upregulated genes): 1.236 | Fold Enrichment: GO: 0065008~regulation of biological quality ([2]; top upregulated genes): 2.067 | Fold Enrichment: GO: 0080134~regulation of response to stress ([2]; top upregulated genes): 3.7 | Fold Enrichment: GO: 00322501~multicellular organismal process ([2]; top upregulated genes): 1.77 | Fold Enrichment: GO: 00550878~regulation of body fluid levels ([2]; top upregulated genes): 4.87 | Fold Enrichment: hsa04060:Cytokine-cytokine receptor interaction ([2]; top upregulated genes): 3.911 | IL10RA expression relative to mannitol ([3]; adjusted p<2.8e-14): significantly upregulated | IL1RN expression relative to mannitol ([3]; adjusted p<2.8e-10): significantly upregulated | IL10 expression relative to mannitol ([3]; probeset called absent, p<0.029): nominally upregulated | Toxicity in long-term animal studies [4]: never seen
